# Values of other authors in Sander's compilation of Henry's law constants (doi:10.1063/1.1564818).
# Assay: Henry solubility constant Hcp at 298.15 K (mol/(m3 Pa))
# Conditions: reference: Fernández-Prini et al. (2003); cited value
row,Henry solubility constant Hcp,SMILES
1,0.00033,O=C=O [carbon dioxide]
2,2.5e-05,[Kr] [krypton]
3,4.5e-06,[Ne] [neon]
4,1.3e-05,O=O [oxygen]
5,2.5e-06,FS(F)(F)(F)(F)F [sulfur hexafluoride]
6,4.4e-05,[Xe] [xenon]

# Second part, the compound before the results:
row,SMILES,Henry solubility constant Hcp
1,[Ar] [argon],1.4e-05
2,[C-]#[O+] [carbon monoxide],9.7e-06
3,[He] [helium],3.9e-06
4,[HH] [hydrogen],7.8e-06
